Assay [1] can be described thus: Antioxidant activity assessed as inhibition of DPPH free radical at 100 uM after 30 mins relative to control. The assay is classed as functional. (The DPPH test is a chemical assay of radical scavenging.)
In the next assay the target is Cholinesterase (Equus caballus, UniProt P81908). Put plainly: Inhibition of horse serum BChE using butyrylcholine chloride as substrate preincubated for 15 mins followed by substrate addition by spectrophotometric method.
Assay [2] can be described thus: Antioxidant activity assessed as inhibition of DPPH free radical after 30 mins. It is filed as functional.
The target in assay [3] is Acetylcholinesterase (Electrophorus electricus) (UniProt O42275). Briefly: Inhibition of electric eel AChE at 0.1 mM using acetylthiocholine iodide as substrate preincubated for 15 mins followed by substrate addition by spectrophotometric method relative to control.
Acetylcholinesterase (Electrophorus electricus), sequence (O42275 24-633 limits assumed): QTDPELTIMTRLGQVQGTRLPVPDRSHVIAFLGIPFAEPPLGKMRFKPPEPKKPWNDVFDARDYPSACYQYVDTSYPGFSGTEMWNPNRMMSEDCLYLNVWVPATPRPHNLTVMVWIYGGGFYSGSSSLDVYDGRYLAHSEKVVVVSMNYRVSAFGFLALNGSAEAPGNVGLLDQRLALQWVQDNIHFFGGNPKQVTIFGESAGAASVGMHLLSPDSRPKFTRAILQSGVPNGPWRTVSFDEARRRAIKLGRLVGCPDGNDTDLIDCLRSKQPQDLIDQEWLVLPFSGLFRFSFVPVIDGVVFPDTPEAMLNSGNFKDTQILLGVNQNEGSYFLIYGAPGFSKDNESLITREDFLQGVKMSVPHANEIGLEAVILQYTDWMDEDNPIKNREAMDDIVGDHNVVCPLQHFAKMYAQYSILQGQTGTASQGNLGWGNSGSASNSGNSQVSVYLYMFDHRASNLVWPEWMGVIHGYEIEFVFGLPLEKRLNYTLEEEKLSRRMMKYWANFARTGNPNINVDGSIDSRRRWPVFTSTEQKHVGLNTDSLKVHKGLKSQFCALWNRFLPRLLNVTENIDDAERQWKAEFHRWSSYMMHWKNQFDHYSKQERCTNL
Assay [4] is described as follows: Antioxidant activity assessed as inhibition of DPPH free radical at 125 uM after 30 mins relative to control. The assay is classed as functional.
The target of the next assay is Acetylcholinesterase (Electrophorus electricus, UniProt O42275). Briefly: Inhibition of electric eel AChE using acetylthiocholine iodide as substrate preincubated for 15 mins followed by substrate addition by spectrophotometric method.
Acetylcholinesterase, sequence (O42275 whole entry): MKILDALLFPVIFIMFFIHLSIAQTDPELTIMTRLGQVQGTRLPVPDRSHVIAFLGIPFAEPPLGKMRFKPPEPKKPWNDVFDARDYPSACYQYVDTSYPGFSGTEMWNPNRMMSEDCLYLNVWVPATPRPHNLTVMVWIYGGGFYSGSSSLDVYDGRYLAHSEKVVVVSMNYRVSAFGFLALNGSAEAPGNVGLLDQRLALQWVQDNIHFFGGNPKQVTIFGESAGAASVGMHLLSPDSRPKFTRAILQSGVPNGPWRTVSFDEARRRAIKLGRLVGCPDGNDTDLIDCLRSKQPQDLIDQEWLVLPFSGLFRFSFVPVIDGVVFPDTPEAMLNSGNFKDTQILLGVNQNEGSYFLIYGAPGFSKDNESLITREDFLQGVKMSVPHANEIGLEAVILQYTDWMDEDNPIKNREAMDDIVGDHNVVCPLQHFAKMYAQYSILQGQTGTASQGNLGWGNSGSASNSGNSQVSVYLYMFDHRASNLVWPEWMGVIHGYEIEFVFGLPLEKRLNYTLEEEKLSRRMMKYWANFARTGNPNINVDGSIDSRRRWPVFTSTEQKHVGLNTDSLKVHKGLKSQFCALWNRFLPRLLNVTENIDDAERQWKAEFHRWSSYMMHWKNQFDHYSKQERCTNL
Assay [5] in a line: Antioxidant activity assessed as inhibition of DPPH free radical at 75 uM after 30 mins relative to control. It is filed as functional.
Assay [6] concerns the target Cholinesterase (Equus caballus) (UniProt P81908). Put plainly: Inhibition of horse serum BChE at 0.1 mM using butyrylcholine chloride as substrate preincubated for 15 mins followed by substrate addition by spectrophotometric method relative to control.
Assay [7] can be described thus: Antioxidant activity assessed as inhibition of DPPH free radical at 50 uM after 30 mins relative to control. The assay is classed as functional.

This is an account of results in ChEMBL document CHEMBL4020738, “Antioxidant and anticholinesterase potential of diterpenoid alkaloids from Aconitum heterophyllum” (Bioorg Med Chem, 2017).

A value given as a limit tells only on which side of the number the result lay.

Cholinesterase (Equus caballus), sequence (P81908 whole entry): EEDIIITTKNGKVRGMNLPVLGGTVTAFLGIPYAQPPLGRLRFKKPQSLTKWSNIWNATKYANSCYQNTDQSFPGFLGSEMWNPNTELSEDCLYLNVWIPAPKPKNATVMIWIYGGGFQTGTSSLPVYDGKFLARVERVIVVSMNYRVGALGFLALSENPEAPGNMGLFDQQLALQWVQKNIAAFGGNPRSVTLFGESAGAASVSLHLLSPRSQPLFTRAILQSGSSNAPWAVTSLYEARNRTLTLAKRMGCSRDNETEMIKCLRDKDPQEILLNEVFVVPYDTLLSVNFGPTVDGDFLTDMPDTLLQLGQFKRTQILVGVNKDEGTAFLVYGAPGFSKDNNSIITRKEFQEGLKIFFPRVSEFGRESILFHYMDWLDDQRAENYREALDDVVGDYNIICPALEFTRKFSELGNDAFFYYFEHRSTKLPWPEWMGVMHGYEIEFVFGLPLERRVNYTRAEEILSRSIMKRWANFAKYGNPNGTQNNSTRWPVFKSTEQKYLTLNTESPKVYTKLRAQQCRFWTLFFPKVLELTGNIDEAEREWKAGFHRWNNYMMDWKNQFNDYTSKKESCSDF
Cholinesterase, sequence (P81908 whole entry): as above

As to `C=C1[C@H]2C[C@H]3C4N5C[C@]6(C)CCC[C@@]47[C@@H]6[C@@]5(O)CC3([C@@H]1O)[C@@H]7C2`, the inhibition was 36% in [1]; “Dose-dependent effect” in assay [2]; above 50% in assay [3]; 41.2% in assay [4]; 25% in [5]; above 50% in assay [6]. The inhibition in assay [7] amounted to 17%. Further, the values for the IC50 against Cholinesterase and at Acetylcholinesterase were 16.2 µM and 12.8 µM, respectively.
As for `O=C1O[C@H]([C@@H](O)CO)C(O)=C1O`, the inhibition in assay [1] is 90%; in assay [4], 96%; in assay [5] it was 85%; in [7], 75%.
As to `C=C1C[C@]23C[C@@H]4[C@@H]5[C@@]6(C)CC(=O)C[C@]57C([C@@H]2[C@@H](O)[C@H]1[C@@H](O)[C@@H]37)N4C6`, the inhibition in [1] is 40%; in [2], “Dose-dependent effect”; in assay [3], above 50%; in assay [4], 65.5%; in assay [5], 32%; in assay [6], above 50%. Moreover, the inhibition in assay [7] was 12.1%. Moreover, the half-inhibitory concentration (IC50) stood at 15.6 µM at Cholinesterase and 10.1 µM against Acetylcholinesterase.
For the compound `C=C1[C@H]2CC[C@@]3(CC[C@H]4[C@]5(CCC[C@]4(C)C4OCCN4C5)[C@@H]3C2)[C@@H]1O` (stereo partly specified), the inhibition in assay [1] was 49.4%; in [2], “Dose-dependent effect”; in [3], above 50%; in assay [4], 60%; in assay [5], 23.3%; in [6], above 50%. For the same compound, the inhibition in [7] came out at 11.8%. Besides, the results for the IC50 against Cholinesterase and against Acetylcholinesterase were 13.1 µM and 8.4 µM, respectively.
In the case of `C=C1[C@H]2CC[C@@]3(C(=O)C[C@@H]4[C@@]5(C)CCC[C@@]4(CN(CCO)C5)[C@@H]3C2)[C@@H]1O`, the inhibition in assay [1] was 40%; in assay [2] it was “Dose-dependent effect”; in assay [3], above 50%; in [4], 45%; in assay [5] it was 31.2%; in assay [6], above 50%. For the same compound, in assay [7], the inhibition amounted to 20%. For the same compound, the IC50 on Cholinesterase is 18.1 µM; on Acetylcholinesterase it was 14.6 µM.
Consider `C=C1[C@H]2CC[C@@]3(CC[C@@H]4[C@]5(C)CCC[C@]4(CN4CCO[C@@H]45)[C@@H]3C2)[C@@H]1O`, for which the inhibition in assay [1] was 42.1%; in assay [2], “Dose-dependent effect”; in assay [3], above 50%; in assay [4] it was 55.2%; in assay [5], 30.1%; in assay [6] it was above 50%. The inhibition in assay [7] was determined as 12.3%. Besides, the figures for the half-maximal inhibitory concentration (IC50) against Cholinesterase and against Acetylcholinesterase were 14.7 µM and 10.3 µM, respectively.
For `CCN1C[C@]2(C)CC[C@H](OC)[C@]34C1[C@@](C)([C@@H](OC)[C@H]23)[C@@]1(O)CC[C@H]2C[C@@H]4C1(O)C(=O)O2`, the inhibition in assay [1] is 33.2%; in assay [2] it was “Dose-dependent effect”; in [3], above 50%; in assay [4], 38.4%; in assay [5], 28.3%; in [6], above 50%. The inhibition in assay [7] turned out to be 22.2%. Further, the half-maximal inhibitory concentration (IC50) against Cholinesterase stood at 8.6 µM; at Acetylcholinesterase, 5.4 µM.
Turning to `CCN1C[C@]2(C)CC[C@H](OC)[C@]34C1[C@H]([C@@H](O)[C@H]23)[C@@]1(O)CC[C@H]2C[C@@H]4[C@@H]1C(=O)O2`, the inhibition in assay [1] is 47.3%; in [2], “Dose-dependent effect”; in [3], above 50%; in assay [4], 52.4%; in assay [5], 39.3%; in [6] it was above 50%. For the same compound, the inhibition in assay [7] is 19.3%. Besides, the IC50 worked out at 10.4 µM on Cholinesterase and 6.5 µM on Acetylcholinesterase.
Turning to `C=C1CC23C[C@H]4[C@@H]5[C@@]6(C)CC[C@H](O)[C@]57C([C@@H]2[C@@H](O)[C@H]1[C@@H](O)[C@@H]37)N4C6`, the inhibition in [1] was 60.3%; in assay [2], “Dose-dependent effect”; in assay [3] it was above 50%; in assay [4], 79.6%; in [5] it was 27%; in assay [6], above 50%. In addition, the inhibition in assay [7] turned out to be 22.5%. The results for the concentration for half-maximal inhibition (IC50) against Cholinesterase and on Acetylcholinesterase were 9.3 µM and 6.5 µM, respectively.

Broadly, the inhibition is the drop in the measured response relative to a control, in per cent. The IC50 is the point on the concentration scale where inhibition reaches its midpoint. Low readings indicate greater potency, high ones weaker potency.
